For 62 molecules, outcome and IC50 results are on record in PubChem BioAssay AID743087 (Broad Institute, 2013).

Structures are written as SMILES. Calls of active or inactive are those of the source.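 The calls were made as follows: active = IC50 below 100 nM in HeLa cells, the median call across repeat tests; inactive = IC50 above 100 nM in HeLa cells.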

Usually IC50 stands for the midpoint of a concentration-inhibition curve.

Tested on in the first assay: not listed separately
Put plainly: cytotoxicity in TP53-mutant HeLa cells – cell-based, CellTiter-Glo luminescence, dry powder, dose response (AID 743087). As to conditions: HeLa viability, CellTiter-Glo luminescence, 48 h. In general terms: In ATP-based viability assays light output follows the ATP content of the culture.
Regarding `CCN(CC)c1ccc(-c2nc(C(C)C)no2)cc1[N+](=O)[O-]`, the outcome was inactive.

Another assay concerns HeLa viability, CellTiter-Glo luminescence, 48 h. Described as above.
Details: not given
Turning to `CCN(CC)c1ccc(C2=NNC(=O)C2(C)C)cc1`, the IC50 is > 1000 nM (inactive). The same measure, in the same setting: in the case of `CC1CC(=O)NN=C1c1ccc(F)c(F)c1` (configuration not stated) it was 64.1 nM. The same measure, in the same setting: in the case of `CC1CC(=O)NN=C1c1ccc(N2CCOCC2)c(F)c1` (configuration not stated) it was 2.73 nM; in that of `CCN(CC)c1ccc(C2=NNC(=O)CC2C)cc1NCCOCCOCCNC(=O)OC(C)(C)C` (configuration not stated), > 1000 nM (inactive). The same measure, in the same setting: in the case of `C/C=C/c1ccc(C2=NNC(=O)C[C@H]2C)cc1` it was 8.73 nM; in that of `C[C@@H]1CC(=O)NN=C1c1ccc(N2CCCOC2=O)cc1`, > 1000 nM (inactive). With `C[C@@H]1CC(=O)NN=C1c1ccc(N)c([N+](=O)[O-])c1`, the IC50 is > 1000 nM (inactive). The same measure, in the same setting: in the case of `CC(=O)Nc1ccc(C2=NNC(=O)C[C@H]2C)cc1C(C)=O` it was 126 nM (inactive); in that of `CC(=O)Nc1ccc(C2=NNC(=O)C[C@H]2C)cc1N`, > 1000 nM (inactive); in that of `CCN(CC)c1ccc(C2=NNC(=O)C[C@H]2C)cc1`, 3.71 nM.

Take `C[C@@H]1CC(=O)NN=C1c1ccc(F)cc1` (racemic): the IC50 is 360 nM (inactive). The same measure, in the same setting: the result for `C[C@@H]1CC(=O)NN=C1c1ccccc1` reads 428 nM (inactive); that for `CCN(CC)c1ccc(C2=NNC(=O)CC2C)cc1N` (configuration not stated), 232 nM (inactive); that for `O=C1C[C@H]2CCc3cc(N4CCOCC4)ccc3C2=NN1` (racemic), > 1000 nM (inactive). With `C[C@@H]1CC(=O)NN=C1c1ccc([Si](C)(C)C)cc1`, the IC50 is 179 nM (inactive).

Turning to `CCNc1ccc(C2=NNC(=O)C[C@H]2C)cc1[N+](=O)[O-]`, the IC50 was 1.08 nM. For the molecule `O=C1CC(c2ccccc2)=NN1`, the IC50 is > 1000 nM (inactive).

On to `C[C@@H]1CC(=O)NN=C1c1ccc(-n2cnnc2)cc1`, for which the IC50 was > 1000 nM (inactive). Consider `C[C@@H]1CC(=O)NN=C1c1ccc(N2CCN(C)CC2)cc1`, for which the IC50 is 297 nM (inactive). On the same count and under the same terms, in the case of `CCCc1ccc(C2=NNC(=O)C[C@H]2C)cc1` it was 16.2 nM; in that of `CC1(C)C(=O)NN=C1c1ccc(N)cc1`, > 1000 nM (inactive); in that of `CC1(C)C(=O)NN=C1c1ccc(Cl)cc1`, > 1000 nM (inactive). Still for that read-out and setting: in the case of `Cc1cc(=O)[nH]nc1-c1ccc(N)cc1` it was > 1000 nM (inactive); in that of `CC(=O)Nc1ccc(C2=NNC(=O)C[C@H]2C)cc1`, 4.78 nM; in that of `C[C@@H]1CC(=O)NN=C1c1ccc(Cl)cc1`, 32.6 nM. Still for that read-out and setting: the result for `CCN(CC)c1ccc(C2=NNC(=O)C[C@H]2C)cc1[N+](=O)[O-]` reads > 1000 nM (inactive). Take `CCN(CC)c1ccc(C(=O)Nc2ccccc2)cc1[N+](=O)[O-]`: the IC50 was > 1000 nM (inactive). Same read-out and setting: in the case of `CC(=O)Nc1ccc(C2=NNC(=O)C[C@H]2C)cc1[N+](=O)[O-]` it was 4.78 nM; in that of `CCN(CC)c1ccc(C2=NNC(=O)CC2C)cc1` (configuration not stated), 8.54 nM; in that of `C[C@@H]1CC(=O)NN=C1c1ccc(N2CCCCS2(=O)=O)cc1`, 478 nM (inactive). Same read-out and setting: the result for `CC1C(=O)NN=C1c1ccc([N+](=O)[O-])cc1` (configuration not stated) reads > 1000 nM (inactive). Same read-out and setting: in the case of `C[C@@H]1CC(=O)NN=C1c1ccc(N2CCCCC2=O)cc1` it was > 1000 nM (inactive); in that of `C[C@@H]1CC(=O)NN=C1c1ccc(N2CCCCC2)cc1`, 3.83 nM. For the molecule `C#Cc1cc(C2=NNC(=O)C[C@H]2C)ccc1NC(C)=O`, the half-maximal inhibitory concentration (IC50) is 64.6 nM. Same read-out and setting: the result for `C[C@@H]1CC(=O)NN=C1c1ccc(C2=CCCCC2)cc1` reads 2.22 nM; that for `CCNc1ccc(C2=NNC(=O)C[C@H]2C)cc1`, 71 nM. The same measure, in the same setting: the result for `Cc1nc2ccc(C3=NNC(=O)C[C@H]3C)cc2[nH]1` reads > 1000 nM (inactive); that for `CC(=O)N1CCN(c2ccc(C3=NNC(=O)CC3C)cc2F)CC1` (configuration not stated), > 1000 nM (inactive). Still for that read-out and setting: in the case of `CC(=O)Nc1ccc(-c2n[nH]c(=O)cc2C)cc1` it was > 1000 nM (inactive); in that of `CC1(C)C(=O)NN=C1c1ccc(N2CCOCC2)cc1`, > 1000 nM (inactive); in that of `CC(=O)Nc1ccc(C2=NNC(=O)C[C@H]2C)cc1Br`, 21.4 nM. `CCN(CC)c1ccc(-c2n[nH]c(=O)cc2C)cc1`: the IC50 is > 1000 nM (inactive).

Regarding `C[C@@H]1CC(=O)NN=C1c1ccc(N2CCCC2=O)cc1`, the IC50 is 133 nM (inactive).

Consider `CC1CC(=O)NN=C1c1ccc(N2CCN(C(=O)Cc3ccc(Cl)cc3Cl)CC2)cc1` (configuration not stated), for which the IC50 is > 1000 nM (inactive). Same read-out and setting: in the case of `CC(=O)Nc1ccc(C2=NNC(=O)CC2C)cc1` (configuration not stated) it was > 1000 nM (inactive). Still for that read-out and setting: in the case of `CC1CC(=O)NN=C1c1cccs1` (configuration not stated) it was > 1000 nM (inactive); in that of `CCN1N=C(c2ccc(N(CC)CC)cc2)[C@H](C)CC1=O`, > 1000 nM (inactive); in that of `C[C@H]1CC(=O)NN=C1c1ccc(N2CCOCC2)c(F)c1`, > 1000 nM (inactive). Still for that read-out and setting: in the case of `C[C@@H]1CC(=O)NN=C1c1ccc(N2CCOCC2)cc1` (racemic) it was 35.1 nM; in that of `C[C@@H]1CC(=O)NN=C1c1ccc(F)c(F)c1`, 22 nM; in that of `C[C@@H]1CC(=O)NN=C1c1ccc(C2CCCCC2)cc1`, 7.59 nM. Take `C[C@@H]1CC(=O)NN=C1c1ccc(N)c(Br)c1`: the IC50 is > 1000 nM (inactive).

For the molecule `C[C@@H]1CC(=O)NN=C1c1ccc(N2CCOCC2)c(F)c1`, the concentration for half-maximal inhibition (IC50) was 1.58 nM.

Take `C[C@@H]1CC(=O)NN=C1c1ccc(N2CCOCC2)cc1`: the IC50 was 13 nM. The same measure, in the same setting: the result for `C[C@@H]1CC(=O)NN=C1c1ccc(-c2cncnc2)cc1` reads 12.6 nM; that for `C[C@H]1CC(=O)NN=C1c1ccc(F)c(F)c1`, > 1000 nM (inactive). On the same count and under the same terms, in the case of `CC1CC(=O)N(c2ccccc2)N=C1c1ccc(Cl)cc1` (configuration not stated) it was > 1000 nM (inactive); in that of `C[C@@H]1CC(=O)NN=C1c1ccc(I)cc1`, 7.02 nM.

As to `CC1(C)C(=O)NN=C1c1ccc([N+](=O)[O-])cc1`, the IC50 is > 1000 nM (inactive). Still for that read-out and setting: the result for `Cc1ccc(CCC(=O)N2CCN(c3ccc(C4=NNC(=O)CC4C)cc3)CC2)cc1` (configuration not stated) reads > 1000 nM (inactive). Turning to `CCN(CC)c1ccc(C2=NNC(=O)CC2C)cc1NC(C)=O` (configuration not stated), the IC50 was > 1000 nM (inactive).
